Bounds are passed on as bounds.

The values below come from paper PMC5766233, “Ternary copper(II) complex: NCI60 screening, toxicity studies, and evaluation of efficacy in xenograft models of nasopharyngeal carcinoma” (PLoS ONE, 2018).

A short description of data set [1]: Cytotoxicity in rat primary hepatocytes (resazurin). The settings on record: male, Wistar, rat, freshly isolated rat primary hepatocytes.
In data set [2] the test system is BGC823 (gastric cancer cells) xenograft. Set-up: method as in earlier work. The conditions noted are these: cited from earlier work.
Data set [3] deals with NCI60 human cancer cell line panel. The conditions noted are these: ref cisplatin NSC number 119875; cited from earlier work.
Data set [4] has as its system CYP1A. Description: Cytochrome P450 induction assay in rat primary hepatocytes, CYP1A. In kind it is in vitro ADME. The conditions noted are these: 1.0 μM, 3 days. An excerpt:
%Activity=(averagearearatiooftreated/averagearearatioofbasalcontrol)x100

Data set [5] deals with NCI leukemia cell lines. The conditions noted are these: cited from earlier work.

In turn, `CC/C(=C(\c1ccccc1)c1ccc(OCCN(C)C)cc1)c1ccccc1` [Tamoxifen, reference compound] gave a half-maximal inhibitory concentration (IC50) at 72 h in data set [1] of 5.1 µM.

As for `N.N.[Cl][Pt][Cl]` [cisplatin], in data set [2] (4 mg/kg), the organ damage result was “considerable damage to liver and kidney”; the “xenograft growth, compared with [Ru(dmb)2(salH)]PF6” value is “slightly less effective”. In addition, in data set [3], the 50% growth inhibitory concentration (GI50) is 1.49 µM. For the compound `Cc1ccc2cc3c(ccc4ccccc43)c3c2c1CC3` [3-Methyl cholanthrene, reference compound], in data set [4], the “Fold induction CYP1A” value stood at 10.9. In addition, in data set [4] (rat, rat primary hepatocytes, probe phenacetin (100 μM in HBSS)), the fold induction at 3 days, 1 µM was greater than 10. In the case of [Ru(dmb)2(salH)]PF6, in data set [2] (5 mg/kg), the “toxicity compared to cisplatin” value was “insignificant nephrotoxicity and nephrotoxicity”; the xenograft growth entry is reported as “significantly suppressed”. Take `O=C([O-])c1ccccc1C(=O)[O-].[Cu+2].c1cnc2c(c1)ccc1cccnc12` [[Cu(o-phthalate)(phenanthroline)]]: the “sensitivity of most NCI leukemia cell lines” value in data set [5] is “resistant”.
